Earlier results as cited in US20070148194A1, “Novel nanoemulsion formulations” (priority 2005, published 2007).

System: HIV
Conditions: in vitro; read-out: anti-HIV activity in vitro, IC50

Which IC50 does the source give for `CC(C)(C)NC(=O)[C@@H]1C[C@@H]2CCCC[C@@H]2CN1C[C@@H](O)[C@H](Cc1ccccc1)NC(=O)[C@H](CC(N)=O)NC(=O)c1ccc2ccccc2n1` [SQV, Saquinavir] here?
Its IC50 is 20 nM.
